In patent US9938258B2 (Karyopharm Therapeutics Inc., priority 2012, dated 2018):
Read-outs that look alike come from different tables or passages of the source.

Assays:
[1] = system: Z138 cells; assay: MTT cell proliferation assay, Z138; format: cell-based; settings: Homo sapiens
Outline: (§1)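 Read-out: MTT reduction to formazan, solubilised and measured at 490 nm after ~4 h with MTT; inhibition (%) = (1-(ODo/OD))×100 relative to negative control. Seeding was 5,000-10,000 cells/well with overnight attachment. Eight test concentrations spanned 1 nM-30 μM; mostly duplicate, mean ± SE.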

[2] = system: MS751 cells; assay: MTT cell proliferation assay, MS751; format: cell-based, human; settings: Homo sapiens
Outline: as §1

[3] = system: 3T3 cells; assay: MTT cell proliferation assay, 3T3; format: cell-based, mouse; settings: Mus musculus
Outline: as §1

[4] = Z-138, Z138 cells, approximately 64-72 hours incubation, read-out: MTT Assay IC50, Z138
[5] = MS751, MS751 cells, approximately 64-72 hours incubation, read-out: MTT Assay IC50, MS751
[6] = NIH3T3, 3T3 cells, approximately 64-72 hours incubation, read-out: MTT Assay IC50, 3T3
[7] = Z-138, Z138 cells, eight concentrations 1 nM to 30 μM, incubation approximately 64-72 hours, read-out: MTT Assay IC50, Z138
[8] = MS751, MS751 cells, eight concentrations 1 nM to 30 μM, incubation approximately 64-72 hours, read-out: MTT Assay IC50, MS751
[9] = NIH3T3, 3T3 cells, eight concentrations 1 nM to 30 μM, incubation approximately 64-72 hours, read-out: MTT Assay IC50, 3T3

SMILES | IC50 [1, 4] [µM] | IC50 [2, 5] [µM] | IC50 [3, 6] [µM] | IC50 [1, 7] [µM] | IC50 [2, 8] [µM] | IC50 [3, 9] [µM] | other results
CNc1ccc(/C=C/C(=O)NCC2Cc3cc(-c4ccc(C(C)=O)s4)cc(Cl)c3O2)cn1 (stereo not drawn) [Compound 294, (E)-N-((5-(5-acetylthiophen-2-yl)-7-chloro-2,3-dihydrobenzofuran-2-yl)methyl)-3-(6-(methylamino)pyridin-3-yl)acrylamide] | 0.1 to 5 | 0.1 to 5 | 5 to 30 |  |  |  | 
CC(=O)c1ccc(-c2cc(Cl)c3c(c2)CC(CNC(=O)/C=C/c2cncnc2)O3)s1 (stereo not drawn) [Compound 254, (E)-N-((5-(5-acetylthiophen-2-yl)-7-chloro-2,3-dihydrobenzofuran-2-yl)methyl)-3-(pyrimidin-5-yl)acrylamide] |  |  |  | > 30 | > 30 | > 30 | 
CC(=O)c1ccc(-c2cc(Cl)c3c(c2)CC(CNC(=O)/C=C\c2cccnc2)O3)s1 (stereo not drawn) [Compound 299, (Z)-N-((5-(5-acetylthiophen-2-yl)-7-chloro-2,3-dihydrobenzofuran-2-yl)methyl)-3-(pyridin-3-yl)acrylamide] | 0.1 to 5 | 0.1 to 5 | > 30 |  |  |  | 
CC(=O)c1ccc(-c2cc(Cl)c3c(c2)CC(CNC(=O)/C=C/c2cccnc2)O3)o1 (stereo not drawn) [Compound 99, (E)-N-((5-(5-acetylfuran-2-yl)-7-chloro-2,3-dihydrobenzofuran-2-yl)methyl)-3-(pyridin-3-yl)acrylamide] |  |  |  | < 0.1 | < 0.1 | 0.1 to 5 | 
CC(O)c1ccc(-c2cc(Cl)c3c(c2)CC(CNC(=O)/C=C/c2cccnn2)O3)s1 (stereo not drawn) [Compound 307] | 0.1 to 5 | 0.1 to 5 | 0.1 to 5 |  |  |  | 
CCn1cc(/C=C/C(=O)NCC2Cc3cc(-c4ccc(C(C)=O)s4)cc(Cl)c3O2)cn1 (stereo not drawn) [Compound 155, (E)-N-((5-(5-acetylthiophen-2-yl)-7-chloro-2,3-dihydrobenzofuran-2-yl)methyl)-3-(1-ethyl-1H-pyrazol-4-yl)acrylamide] |  |  |  | > 30 | > 30 | > 30 | 
CC(=O)c1ccc(-c2cc(Cl)c3c(c2)CC(CNC(=O)/C=C/c2cccnn2)O3)o1 (stereo not drawn) [Compound 314, (E)-N-((5-(5-acetylfuran-2-yl)-7-chloro-2,3-dihydrobenzofuran-2-yl)methyl)-3-(pyridazin-3-yl)acrylamide] | 0.1 to 5 | 0.1 to 5 | 0.1 to 5 |  |  |  | 
CN1C(=O)c2ccc(-c3cc(Cl)c4c(c3)CC(CNC(=O)/C=C/c3ccc(N)nc3)O4)cc2C1=O (stereo not drawn) [Compound 343, (E)-3-(6-aminopyridin-3-yl)-N-((7-chloro-5-(2-methyl-1,3-dioxoisoindolin-5-yl)-2,3-dihydrobenzofuran-2-yl)methyl)acrylamide] | > 30 | 0.1 to 5 | < 0.1 |  |  |  | 
CC(C)(O)c1ccc(-c2cc(Cl)c3c(c2)CC(CNC(=O)/C=C/c2cccnn2)O3)s1 (stereo not drawn) [Compound 320, (E)-N-((7-chloro-5-(5-(2-hydroxypropan-2-yl)thiophen-2-yl)-2,3-dihydrobenzofuran-2-yl)methyl)-3-(pyridazin-3-yl)acrylamide] | 0.1 to 5 | 0.1 to 5 | 0.1 to 5 |  |  |  | 
CC(=O)c1ccc(-c2cc(Cl)c3c(c2)CC(CNC(=O)/C=C/c2ccc(N)cc2)O3)s1 (stereo not drawn) [Compound 114, (E)-N-((5-(5-acetylthiophen-2-yl)-7-chloro-2,3-dihydrobenzofuran-2-yl)methyl)-3-(4-aminophenyl)acrylamide] |  |  |  | > 30 | > 30 | > 30 | 
Nc1ccc(/C=C/C(=O)NCC2Cc3cc(-c4ccc(C(=O)N5CCNCC5)nc4)cc(Cl)c3O2)cn1 (stereo not drawn) [Compound 342, (E)-3-(6-aminopyridin-3-yl)-N-((7-chloro-5-(6-(piperazine-1-carbonyl)pyridin-3-yl)-2,3-dihydrobenzofuran-2-yl)methyl)acrylamide] | > 30 | 0.1 to 5 | 0.1 to 5 |  |  |  | 
CCn1ccnc1/C=C/C(=O)NCC1Cc2cc(-c3ccc(C(C)=O)s3)cc(Cl)c2O1 (stereo not drawn) [Compound 191, (E)-N-((5-(5-acetylthiophen-2-yl)-7-chloro-2,3-dihydrobenzofuran-2-yl)methyl)-3-(1-ethyl-1H-imidazol-2-yl)acrylamide] | 5 to 30 | 5 to 30 | > 30 |  |  |  | 
CC(=O)c1ccc(-c2cc(Cl)c3c(c2)CC(CNC(=O)/C=C/c2cnccc2N)O3)s1 (stereo not drawn) [Compound 108, (E)-N-((5-(5-acetylthiophen-2-yl)-7-chloro-2,3-dihydrobenzofuran-2-yl)methyl)-3-(4-aminopyridin-3-yl)acrylamide] |  |  |  | 0.1 to 5 | 0.1 to 5 | 5 to 30 | 
CC(=O)c1ccc(-c2cc(Cl)c3c(c2)CC(CNC(=O)/C=C/c2ccncc2)O3)s1 (stereo not drawn) [Compound 24, (E)-N-((5-(5-acetylthiophen-2-yl)-7-chloro-2,3-dihydrobenzofuran-2-yl)methyl)-3-(pyridin-4-yl)acrylamide] |  |  |  | > 30 | > 30 | > 30 | 
CC(=O)c1ccc(-c2cc(Cl)c3c(c2)CC(CNC(=O)/C=C/c2cncc(S(=O)(=O)N(C)C)c2)O3)s1 (stereo not drawn) [Compound 210, (E)-N-((5-(5-acetylthiophen-2-yl)-7-chloro-2,3-dihydrobenzofuran-2-yl)methyl)-3-(5-(N,N-dimethylsulfamoyl)pyridin-3-yl)acrylamide] | > 30 | 5 to 30 | > 30 |  |  |  | 
CC(=O)c1ccc(-c2cc(Cl)c3c(c2)CC(CNC(=O)/C=C/c2ccccc2N)O3)s1 (stereo not drawn) [Compound 110, (E)-N-((5-(5-acetylthiophen-2-yl)-7-chloro-2,3-dihydrobenzofuran-2-yl)methyl)-3-(2-aminophenyl)acrylamide] |  |  |  | > 30 | > 30 | > 30 | 
CC(=O)c1ccc(-c2cc(Cl)c3c(c2)CC(CNC(=O)C#Cc2cccnc2)O3)s1 (stereo not drawn) [Compound 251, N-((5-(5-acetylthiophen-2-yl)-7-chloro-2,3-dihydrobenzofuran-2-yl)methyl)-3-(pyridin-3-yl)propiolamide] |  |  |  | 0.1 to 5 | 0.1 to 5 | 5 to 30 | 
CC(=O)c1ccc(-c2cc(Cl)c3c(c2)CC(CNC(=O)/C=C/c2cncc(F)c2)O3)s1 (stereo not drawn) [Compound 298, (E)-N-((5-(5-acetylthiophen-2-yl)-7-chloro-2,3-dihydrobenzofuran-2-yl)methyl)-3-(5-fluoropyridin-3-yl)acrylamide] | 0.1 to 5 | > 30 | > 30 |  |  |  | 
CC(=O)c1ccc(-c2cc(Cl)c3c(c2)CC(CNC(=O)/C=C/c2c(C)nn(-c4ccc(F)cc4)c2Cl)O3)s1 (stereo not drawn) [Compound 284, (E)-N-((5-(5-acetylthiophen-2-yl)-7-chloro-2,3-dihydrobenzofuran-2-yl)methyl)-3-(5-chloro-1-(4-fluorophenyl)-3-methyl-1H-pyrazol-4-yl)acrylamide] | > 30 | > 30 | > 30 |  |  |  | 
Nc1ccc(CNC(=O)/C=C/C2Cc3cc(-c4cccc(S(=O)(=O)N5CCOCC5)c4)cc(Cl)c3O2)cn1 (stereo not drawn) [Compound 357, (E)-N-((6-aminopyridin-3-yl)methyl)-3-(7-chloro-5-(3-(morpholinosulfonyl)phenyl)-2,3-dihydrobenzofuran-2-yl) acrylamide] | 0.1 to 5 | < 0.1 | < 0.1 |  |  |  | 
Nc1ccc(/C=C/C(=O)NCC2Cc3cc(-c4c(F)cc(C(=O)N5CCOCC5)cc4F)cc(Cl)c3O2)cn1 (stereo not drawn) [Compound 902, (E)-3-(6-aminopyridin-3-yl)-N-((7-chloro-5-(2,6-difluoro-4-(morpholine-4-carbonyl)phenyl)-2,3-dihydrobenzofuran-2-yl)methyl)acrylamide] | < 0.1 | < 0.1 | 0.1 to 5 |  |  |  | 
CCOC(=O)CCOCCOCCC(=O)N1CCN(C(=O)c2ccc(-c3cc(Cl)c4c(c3)CC(CNC(=O)/C=C/c3ccc(N)nc3)O4)cc2)CC1 (stereo not drawn) [Compound 354, (E)-ethyl 3-(2-(3-(4-(4-(2-((3-(6-aminopyridin-3-yl)acrylamido)methyl)-7-chloro-2,3-dihydrobenzofuran-5-yl)benzoyl)piperazin-1-yl)-3-oxopropoxy)ethoxy)propanoate] | 5 to 30 | < 0.1 | < 0.1 |  |  |  | 
CN(C)C(=O)c1ccc(-c2cc(Cl)c3c(c2)CC(CNC(=O)/C=C/c2ccc(N)nc2)O3)cc1 (stereo not drawn) [Compound 233, (E)-4-(2-((3-(6-aminopyridin-3-yl)acrylamido)methyl)-7-chloro-2,3-dihydrobenzofuran-5-yl)-N,N-dimethylbenzamide] | < 0.1 | 0.1 to 5 | 5 to 30 |  |  |  | 
CC(=O)c1ccc(-c2cc(Cl)c3c(c2)CC(CNS(=O)(=O)/C=C/c2cccnc2)O3)s1 (stereo not drawn) [Compound 310, (E)-N-((5-(5-acetylthiophen-2-yl)-7-chloro-2,3-dihydrobenzofuran-2-yl)methyl)-2-(pyridine-3-yl) ethenesulphonamide] |  |  |  |  |  |  | IC50 ([1]; Z-138, read-out: MTT Assay IC50, Z138): 5 to 30 µM; IC50 ([2]; MS751, read-out: MTT Assay IC50, MS751): > 30 µM; IC50 ([3]; NIH3T3, read-out: MTT Assay IC50, 3T3): > 30 µM
CCc1nc(C)c(/C=C/C(=O)NCC2Cc3cc(-c4ccc(C(C)=O)s4)cc(Cl)c3O2)[nH]1 (stereo not drawn) [Compound 177, (E)-N-((5-(5-acetylthiophen-2-yl)-7-chloro-2,3-dihydrobenzofuran-2-yl)methyl)-3-(2-ethyl-4-methyl-1H-imidazol-5-yl)acrylamide] |  |  |  | 0.1 to 5 | 0.1 to 5 | > 30 | 
